Read-outs that look alike come from different tables or passages of the source.
Target: T1, RhlR (Pseudomonas aeruginosa, UniProt P54292)
T1 construct: expressed in transfected cells; host or cells: E. coli JLD271 (K-12 ΔlacX74 sdiA271::Cam) carrying pJN105-R2 (RhlR expression) and pSC11-rhlI (rhlI'-lacZ reporter)
Test: P. aeruginosa PA14 ΔrhlIΔlasI RhlR GFP reporter antagonism assay
Type: cell-based
Conditions: for Max Inhibition (RhlR): P. aeruginosa PA14 ΔrhlIΔlasI, against 4 μM BHL with 10 μM OdDHL, highest concentrations tested
Description: We were interested in determining whether these new RhlR antagonists identified in an E. coli RhlR reporter maintained their activity in the native organism, P. aeruginosa. […] Antagonism of RhlR was measured in the presence of BHL and OdDHL (the latter signal was needed to induce the production of RhlR via LasR). […] The reasons for this reduction in activity are likely multifold, but we believe that they may stem from the low permeability of P. aeruginosa to small molecules, its lower (native) level of RhlR expression, its abundance of efflux pumps, and/or the cross-interaction of compounds with other targets (LasR, QscR, and potentially others) that then regulate RhlR. […] Nevertheless, these reporter data for sulfonyl HLs 39, 43, 59, and 75 in P. aeruginosa indicate that these compounds are capable of antagonizing RhlR activity in the native host.
RhlR activity in E. coli strain JLD271 (ΔsdiA) was measured via a β-galactosidase reporter (rhI-lacZ) using the Promega Beta-Glo Assay System as previously described. RhlR activity in P. aeruginosa PA14 (ΔrhlIΔlasI) was measured via a GFP reporter (rhlA-gfp). […] See Supporting Information for both reporter protocols.
Supporting Information — Aguirre-Figueroa et al.
P. aeruginosa RhlR reporter assay. RhlR activity in P. aeruginosa PA14 ΔrhlIΔlasI was measured via a GFP reporter. Briefly, a single colony of P. aeruginosa strain PA14 ΔrhlIΔlasI harboring the transcriptional fusion reporter pPROBE-GT rhlA-GFP (Table S1) was grown in LB medium with 40 μg/mL gentamicin overnight (~20 h). The culture was diluted 1:100 in fresh LB medium, without antibiotic, to an OD600 = 0.25 (0.22–0.30) (~1 h). Aliquots (2 μL) of compound DMSO stock solution or serial dilution were added to the inner wells (i.e., non-periphery rows) of a black, clear bottom 96-well plate. To 12 inner wells, DMSO alone (vehicle) was added to serve as controls (negative and positive). For the six negative control wells (no BHL), 198 μL of bacterial culture plus OdDHL (to achieve 10 μM) were added. For the six positive control wells (no test compound), 198 μL of bacterial culture plus OdDHL (10 μM) and BHL (to achieve 4 μM) were added. To all the remaining wells containing test compound, 198 μL of bacterial culture plus OdDHL (10 μM) and BHL (4 μM) were added. Water (200 μL) was added to the outer (periphery) wells to maintain humidity during incubation. Plates were incubated for 4 h at 37 °C. After incubation, the OD600 and GFP production (excitation at 500 nm, emission at 540 nm) were read for each well using a plate reader. To determine levels of RhlR activity, raw GFP production was divided by OD600 to correct for growth variation and then normalized to the negative (0%) and positive (100%) control wells.
Dose-response reporter assay data for compounds in the P. aeruginosa RhlR reporter.
Dose-response curves for RhlR agonism by BHL and for RhlR antagonism by selected compounds against 4 μM BHL using the P. aeruginosa PA14 RhlR reporter are provided below. Compound names are indicated on the x-axis of each plot. All assays performed in triplicate as at least three separate biological replicates. Error bars indicate SD of n = 3 trials. Curve fits generated using GraphPad Prism software (v9.0) using a variable slope sigmoidal curve fit. IC50 values for antagonists […]
Max Inhibition = 47% Max Inhibition = 59%
Max Inhibition = 49% Max Inhibition = 67%
(also on this page, place not known: % Activity % Activity % Activity % Activity % Activity)

T1 sequence (P54292 whole entry): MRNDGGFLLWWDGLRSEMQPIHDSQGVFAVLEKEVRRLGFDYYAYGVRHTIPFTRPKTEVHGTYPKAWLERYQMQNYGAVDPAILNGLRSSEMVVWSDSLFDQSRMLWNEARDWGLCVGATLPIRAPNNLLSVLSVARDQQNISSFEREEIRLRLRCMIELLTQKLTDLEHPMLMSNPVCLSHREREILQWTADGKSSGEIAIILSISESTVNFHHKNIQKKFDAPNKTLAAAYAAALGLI

Row | Compound | IC50 (P. aeruginosa PA14 ΔrhlIΔlasI RhlR reporter) | Max Inhibition (RhlR) | IC50
1 | CCCCCS(=O)(=O)N[C@H]1CCOC1=O [Compound 75, C5 ASHL] | > 1 mM | 67% | 
2 | O=C1OCC[C@@H]1NS(=O)(=O)c1ccc(F)c(F)c1 [Compound 59, 3,4-di-F BSHL] |  | 49% | > 1 mM
3 | O=C1OCC[C@@H]1NS(=O)(=O)c1cccc(Br)c1 [Compound 39, 3-bromo BSHL] |  | 47% | > 1 mM
4 | O=C1OCC[C@@H]1NS(=O)(=O)c1ccc(Cl)c(Cl)c1 [Compound 43, 3,4-di-Cl BSHL] |  | 59% | > 1 mM
